Test results reported in publication PMC5772648, “Targeted NUDT5 inhibitors block hormone signaling in breast cancer cells” (Nature Communications, 2018).

Assays:
T47D cells = assay: cell viability by resazurin; assay type: cell-based; conditions: 72 h
Description: Cell viability was assessed by resazurin[9]. 5000 HL-60 cells (or 1000 U-2 OS/2000 T47D cells) were seeded per well on a 96-well plate. The following morning, compounds (or the equivalent amount of DMSO) were added to obtain the final concentrations indicated and the cells were incubated at 37 °C for 72 h with resazurin added at 0.02 mg/mL for the last 2–6 h. Resorufin fluorescence was detected at […] with a Hidex Sense fluorescent plate reader. Viability curves were fit using the sigmoidal dose-response (variable slope) function in GraphPad Prism 7.

[1] = target: T1, NUDT5 in intact HL-60 cells (Homo sapiens, UniProt Q9UKK9); assay: intact cell CETSA; assay type: cell-based; conditions: 20 µM, 83 °C
T1 construct: endogenous in cells; host or cells: HL-60
Description: For CETSA experiments with cells treated in culture, 1 × 10^6 HL-60 were treated with DMSO (0.1 % v/v final) or 20 µM compound for 3 h at 37 °C and 5% CO2 in a humidified incubator. T47D^WT cells were treated instead with 80 µM TH1659, 15 µM TH5423/5424 and 1.5 µM TH5427. The cells were harvested, washed twice with PBS and resuspended in TBS with protease inhibitors, as above. Heating was identical as before, except that immediately following heating, the cell suspensions were snap frozen in a dry ice/ethanol bath and freeze-thawed, as previously, to lyse cells. Centrifugation at 20 000 × g for 20 min at 4 °C removed cellular debris and protein aggregates, and lysates were prepared for western blotting.

NUDT5 in HL-60 cells = target: T2, NUDT5 in HL-60 cells (Homo sapiens, UniProt Q9UKK9); assay: isothermal dose-response fingerprint CETSA (ITDRFCETSA); assay type: cell-based; conditions: 20 to 0.06 µM
T2 construct: endogenous in cells; host or cells: HL-60
Description: Treatments, heating and lysis procedures for ITDRFCETSA were performed identically to those for CETSA experiments, except NUDT5 inhibitors were added to cells at serial dilutions from 20 to 0.06 µM. Curves were fit by sigmoidal dose-response (variable slope) to derive EC50 values in GraphPad Prism 7.

[2] = test system: histone H1 displacement in T47D cells; assay: histone H1 displacement by chromatin immunoprecipitation after R5020; assay type: cell-based; conditions: 30 min R5020
Description: For hormone and inhibitor treatments, normal T47D^WT cells or cells containing a single copy of luciferase under the control of the mouse mammary tumor virus (MMTV) promoter (T47D^M) were used[23]. Prior to hormone induction, cells were grown in phenol red-free RPMI medium supplemented with 10% dextran-coated charcoal-treated FBS (DCC/FBS). After 16 h in serum-free conditions, cells were pre-incubated with DMSO (vehicle) or NUDT5 inhibitor for 2 h at the indicated dose before addition of R5020 (10 nM) or vehicle (ethanol, EtOH) for the allotted time.
ChIP assays were performed using a histone H1-specific antibody, AE4 (Abcam)[54]. 1 × 10^7 T47D^M cells (plated and treated with hormone and/or inhibitor, as described above) were cross-linked for 10 min with 1% formaldehyde. Lysates were sonicated (Biorupter sonicator, Diagenode) resulting in DNA fragments with a size range of 200-300 bp. […] The resultant eluted DNA was quantified by Qubit 3.0 Fluorometer (Life Technologies) and qPCR (LightCycler FastStart DNA Master SYBR Green I, Roche). The fold enrichment of target sequences in the immunoprecipitated (IP) compared to input (I) fractions were calculated using the comparative Ct method (2^Ct(IP)−Ct(I)). […]

[3] = target: T3, NUDT5 in HL-60 cell lysates (Homo sapiens, UniProt Q9UKK9); assay: cell lysate CETSA (HT-CETSA); assay type: binding; conditions: 20 µM, 83 °C
T3 construct: endogenous in cells; host or cells: HL-60
Description: Target engagement in cells was determined by the cellular thermal shift assay (CETSA)[29]. Briefly, cell lysate thermal shift assays were performed with 1 × 10^6 HL-60 cells per temperature/condition. Cells were collected and washed once with PBS and resuspended in TBS with protease inhibitor cocktail (Mini cOmplete, EDTA-free, Roche) at 60 µL/1 × 10^6 cells. The cells were then aliquoted and lysed by freeze-thawing three times with 3-min incubations (3x, 3 min.+3 min.) using an ethanol/dry ice bath and water bath at 37 °C. The lysates were then centrifuged at 20,000×g for 20 min at 4 °C to remove cellular debris. Supernatants were then transferred to PCR strip tubes and treated with 0.5 µL DMSO (0.8% v/v final) or 20 µM inhibitor for 20 min at room temperature. Lysates with compounds were heated at the indicated temperature in a Veriti Thermal Cycler (Applied Biosystems) for 3 min, then cooled for another 3 min at room temperature. They were then centrifuged at 20 000 × g for 20 min at 4 °C to pellet protein aggregates and 45 µL was removed and prepared for western blotting analysis.

| SMILES | toxicity in T47D cells (T47D cells) | NUDT5 stabilization in intact cells [1] | ITDRFCETSA dose-dependent stabilization (NUDT5 in HL-60 cells) | histone H1 displacement after R5020 ([2]; 15 µM) | NUDT5 stabilization in cell lysates [3] | EC50 (NUDT5 in HL-60 cells; read-out: ITDRFCETSA apparent EC50) | histone H1 displacement after R5020 ([2]; 1.5 µM) |
| --- | --- | --- | --- | --- | --- | --- | --- |
| CCN1CCN(c2nc3c(c(=O)n(C)c(=O)n3C)n2Cc2nnc(-c3ccc(Cl)c(Cl)c3)o2)CC1 [TH5424] | generally non-toxic when used below 20 µM | stabilized NUDT5 to nearly the same levels as observed in the 37 °C DMSO control | could also dose-dependently stabilize NUDT5, however much higher concentrations were required | moderate effects | showed the most stabilization of NUDT5 in cell lysates | – | – |
| Cn1c(=O)c2c(nc(N3CCNCC3)n2Cc2nnc(-c3ccc(Cl)c(Cl)c3)o2)n(C)c1=O [TH5427] | generally non-toxic when used below 20 µM | stabilized NUDT5 to nearly the same levels as observed in the 37 °C DMSO control | – | – | showed the most stabilization of NUDT5 in cell lysates | 2100 nM | inhibited histone H1 displacement |
